For the experiment, the system named is P. falciparum 3D7 growth, pLDH absorbance. Kind of experiment: P. falciparum 3D7 growth inhibition, dose response, strain 3D7 (AID 2305).

Each structure is given as a SMILES string.

Take `Cc1nc(-c2ccc(-c3ccc(C(=O)Nc4ccc(I)c(OCCN5CCCC5)c4)cc3)c(C)c2)no1`: the IC50 is 960 nM.

`COc1ccc2c(NN=Cc3ccccc3[N+](=O)[O-])cc(C)nc2c1` displayed an IC50 of 720 nM.

Compound `Cc1[nH]c2ccc(-c3ccc(N(C)C)cc3)cc2c(=O)c1Cl` displayed an IC50 of 720 nM.

Compound `CN(C)CCc1c[nH]c2ccc(C(=O)Nc3ccc(-c4ccncc4)cc3)cc12` returned an IC50 of 570 nM.

Compound `N#CCOc1c(C2CCN(CCCCNC(=O)c3ccc(-c4ccc(C(F)(F)F)cc4)cc3)CC2)ccc2c1CCCC2` showed an IC50 of 760 nM.

Regarding `COc1cccc(NC(=O)Nc2cc(C)nc3ccccc23)c1`, the IC50 is 720 nM.

The compound `O=C(Cc1cnc[nH]1)Nc1ccc(-c2cccc(-c3nc4ccc(C(F)(F)F)cc4[nH]3)c2)cc1` showed an IC50 of 740 nM.

Take `CC(C)CCn1c(Sc2ccc([N+](=O)[O-])cc2C(F)(F)F)nnc1-c1ccccc1Cl`: the half-inhibitory concentration (IC50) amounted to 920 nM.

The compound `O=c1c2ccc(F)cc2sn1-c1ccc(Cl)cc1` came in with an IC50 of 1150 nM.

Regarding `O=C(NCc1cccc(F)c1)Nc1ccc(-c2cccc(-c3nc4ccc(F)cc4[nH]3)c2)cc1`, the IC50 was 770 nM.

In turn, `COc1ccc(CNCc2ccc(F)cc2)cc1-c1ccc(OC)c(S(=O)(=O)NCCN2CCCC2)c1` gave an IC50 of 790 nM.

Take `CC(C)C(C(=O)Nc1ccc2c(c1)OCO2)c1ccc(Cl)cc1` (stereo unspecified): the IC50 came to 720 nM.

Turning to `COc1ccc2nccc([C@@H](O)CN3CCC(NC(=O)C(c4cccs4)N4CCN(c5ccc(F)cc5)CC4)CC3)c2c1` (stereo partly specified), the IC50 amounted to 820 nM.

Turning to `C=C(C)Cn1cc(C2CCN(CCN3CCC(CNC(=O)c4ccc(-c5ccc(C#N)cc5)cc4)CC3)CC2)c2ccccc21`, the IC50 was 430 nM.

`CC(C)NC(=O)Cn1cc(C2CCN(CC3CCN(C(=O)/C=C/c4ccc(Cl)c(Cl)c4)CC3)CC2)c2ccccc21` gave a half-maximal inhibitory concentration (IC50) of 1030 nM.

In turn, `Cc1cc(C)cc(OCC(O)CN(CCN2CCOCC2)C(=O)Nc2ccc(Br)cc2)c1` (stereo unspecified) returned an IC50 of 1030 nM.

Regarding `COc1cc(F)c2nccc([C@@H](O)CN3CC[C@H](NCc4ccc5c(n4)NC(=O)CS5)[C@H](F)C3)c2c1`, the IC50 turned out to be 1170 nM.

`COc1cc(NC(=O)/C=C/c2ccccc2OC(F)(F)F)cc(OCCN2CCC(O)(c3ccccc3)CC2)c1`: the IC50 was determined as 290 nM.

For `Brc1ccc(Nc2nc3ccccc3nc2Nc2ccc(Br)cc2)cc1`, the half-maximal inhibitory concentration (IC50) worked out at 780 nM.

The compound `CC(C)(CNC(=O)C1CCN(CC2CCCCC2)CC1)c1nc(-c2ccc(Cl)c(O)c2)c(-c2ccncc2)[nH]1` returned an IC50 of 890 nM.

Turning to `Cc1ccc2cc(NC(=O)c3cccc(C(=O)Nc4ccc5nc(C)ccc5c4)n3)ccc2n1`, the IC50 was determined as 1170 nM.

`O=C(Nc1ccc(Br)c(Cl)c1)c1cc([N+](=O)[O-])cc2cn[nH]c12` yielded an IC50 of 1060 nM.

As for `O=C(NCc1ccccn1)C(c1cc2ccccc2o1)N1CCN(C(c2ccccc2)c2ccccc2)CC1` (stereo unspecified), the IC50 stood at 860 nM.

In the case of `Clc1ccc(OCCC2CCN(CCCCCCN3CCCCC3)CC2)cc1Cl`, the IC50 was found to be 1140 nM.

Compound `CC(C)CN(c1nc(C(=O)NNC(=O)[C@H](CC2CC2)NC(=O)c2cc3cc(OCCN(C)C)ccc3o2)cs1)C1CC1` came in with an IC50 of 1030 nM.

On to `Cc1cc(-c2ccnc(Nc3cccc(C#N)c3)n2)cc(C)c1O`, for which the IC50 was 920 nM.

`COc1ccc(NC(=O)[C@H](CC(C)C)Nc2cc(C)nc(NCc3cccc(C)c3)n2)cc1` showed an IC50 of 1020 nM.

Take `N#Cc1ccc(-c2ccc(C(=O)NCCCCN3CCC(c4cc(Br)c5c(c4OCC(N)=O)CCCC5)CC3)cc2)cc1`: the half-inhibitory concentration (IC50) was 800 nM.

For the compound `CN(CCO)Cc1cccc(-c2ccc(NC(=O)c3cccc(C#N)c3)cc2)c1`, the IC50 turned out to be 800 nM.

On to `CCN(CC)CCN(Cc1ccc(-c2ccc(C(F)(F)F)cc2)cc1)C(=O)Cn1c(CCc2c(F)cccc2F)nc(=O)c2ccccc21`, for which the IC50 worked out at 640 nM.

`CCCCCOc1ccc(N2C(N)=NC(N)=NC2(C)C)cc1` returned an IC50 of 200 nM.

Consider `Cc1cccc(CN2CCCN(Cc3ccc(C(=O)Nc4ccc(Cl)cc4)cc3)CC2)c1`, for which the IC50 is 600 nM.

For the compound `CCN(CC)c1ccccc1CNC(=O)c1cc(Cl)c(N)cc1OC`, the IC50 is 210 nM.

Turning to `N#Cc1ccc(-c2ccc(C(=O)NCCCCN3CCC(c4ccc5c(c4OCC(N)=O)CCCC5)CC3)cc2)cc1`, the IC50 amounted to 980 nM.

In turn, `Cc1cc(N(CCN2CCCCC2)CCN2CCCCC2)nc(Nc2ccc(Cl)cc2)n1` came in with an IC50 of 270 nM.

In turn, `CN(c1cc(NC(=O)c2ccc(F)cc2)ccn1)C1CCN(Cc2cccc(C#N)c2)CC1` displayed an IC50 of 830 nM.

`CCN(CC)CCOc1ccc(C(O)(C#CC(O)(c2ccc(C)cc2)c2ccc(OCCN(CC)CC)cc2)c2ccc(C)cc2)cc1` (stereo unspecified) displayed an IC50 of 900 nM.

Regarding `Cc1ccc(-c2csc(C)n2)c(C)c1`, the concentration for half-maximal inhibition (IC50) was 990 nM.

In the case of `c1ccc2[nH]c(-c3ccc(-c4ccc(CN5CCN(c6ccncc6)CC5)cc4)s3)nc2c1`, the concentration for half-maximal inhibition (IC50) was found to be 200 nM.

In turn, `CN1CCN(c2ccc(Nc3ncc([N+](=O)[O-])c(Nc4ccccc4O)n3)cc2)CC1` gave a 50% inhibitory concentration (IC50) of 720 nM.

Compound `CCn1cc(CN2C(=O)C(c3ccccc3)(c3ccccc3)N=C2N)cn1` had an IC50 of 820 nM.

The compound `c1ccc(COc2ccc(Nc3ncnc4cnc(-c5ccc(CN6CCCCC6)o5)cc34)cc2)cc1` displayed an IC50 of 970 nM.

For `CCOC(=O)c1[nH]c(-c2ccc(-c3ccccc3)cc2)nc1N`, the IC50 came to 420 nM.

In turn, `CCC(=O)Nc1ccc(Nc2nc(C)cc(N3CCCC3)n2)cc1` showed an IC50 of 1320 nM.

For the compound `O=C(NCc1ccc(Cl)c(Cl)c1)c1cc(CNC2CCNCC2)ccc1O`, the IC50 amounted to 860 nM.

`O=c1cc(NCCCNCc2cc(F)cc(C(F)(F)F)c2)[nH]c2ccccc12` had an IC50 of 1200 nM.

As for `CCN(CC)c1ccc(C(c2ccc(N(CC)CC)cc2)c2ccc([N+](=O)[O-])cc2)cc1`, the IC50 is 950 nM.

Turning to `Cc1noc(C)c1CN1CCCN(c2ccc3c(c2)CCN(Cc2ccc(-c4ncc[nH]4)cc2)CC3)CC1`, the IC50 amounted to 860 nM.

With `COc1ccc(NCc2cccc(-c3cccc(CNCCc4ccccc4)c3)c2)cc1`, the 50% inhibitory concentration (IC50) was determined as 1050 nM.

On to `Cc1cc(N[C@@H](Cc2ccccc2)C(=O)NCc2cccs2)nc(NCCc2cccnc2)n1`, for which the IC50 is 1010 nM.

Compound `Cc1cccc2[nH]c(-c3cccc(-c4cccc(CNCCCN5CCCC5=O)c4)c3)nc12` yielded an IC50 of 740 nM.

Take `COc1ccc(-c2cccc(NC(=O)c3ccc(Cl)cc3)c2)cc1CN1CCNCC1`: the IC50 came out at 840 nM.

With `Fc1cc(Cl)ccc1Nc1ccnc(Nc2ccc3cn[nH]c3c2)n1`, the IC50 is 740 nM.

Regarding `N#Cc1ccc(-c2ccc(C(=O)NCCCCN3CCC(c4cn(CCO)c5ccccc45)CC3)cc2)cc1`, the IC50 was determined as 950 nM.

As for `Cc1cccc(C(=O)NCCCN2CCC(NC(=O)/C=C/c3ccc(Cl)c(Cl)c3)CC2)c1`, the IC50 came to 1700 nM.

Regarding `O=C(NCC1CCN(Cc2ccc(F)cc2)C1)c1cc(-c2cccc(C(F)(F)F)c2)cs1` (stereo unspecified), the IC50 came out at 960 nM.

`O=S(=O)(NCCN1CCCC1)c1cccc(-c2ccc(CNC3Cc4ccccc4C3)cc2)c1` showed an IC50 of 660 nM.

In turn, `Fc1ccccc1COc1ccc(Nc2ncnc3ccc(-c4nnc(C(F)(F)F)o4)cc23)cc1Cl` yielded an IC50 of 730 nM.

Consider `CCOc1ccc2nc3cc(NC(=O)c4ccco4)ccc3c(N)c2c1`, for which the IC50 came out at 800 nM.

Consider `COc1cccc(C(=O)[C@H]2C[C@@H]2CN(C)CC(O)c2cc(C)c(OC)cc2C)c1` (stereo partly specified), for which the IC50 worked out at 1140 nM.

`CCCC(=O)Nc1ccc(OCCCN(Cc2ccccc2C(F)(F)F)c2ccc(C#N)c(C(F)(F)F)c2)cc1`: the half-maximal inhibitory concentration (IC50) came out at 930 nM.

In general, IC50 refers to the concentration needed to halve the response being measured. Lower therefore signals inhibition by little substance.

Values taken from PubChem BioAssay AID2305 (GlaxoSmithKline (GSK), 2010).
